Laboratory results published in patent US20100273772A1, “Bisaryl Alkynylamides as Negative Allosteric Modulators of Metabotropic Glutamate Receptor 5 (MGLUR5)” (Wyeth LLC, priority 2009, published 2010).

Tests used:
[1] = biological target: T1, metabotropic glutamate receptor 5 (Rattus norvegicus, UniProt P31424); test: FLIPR Calcium 3 fluorescence-based functional assay of intracellular calcium, mGluR5 antagonist activity; assay type: cell-based; details: inhibition of glutamate (EC90, ~50 uM) stimulated calcium levels, mGluR5 HEK-293 cells; read-out: mGluR5 FLIPR MP Antagonist DR IC50
T1 construct: expressed in transfected cells; host or cells: HEK-293
Summary of the method: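 mGluR5 HEK-293 cells (50,000/well, plated overnight) are loaded with FLIPR Calcium 3 dye for 1 h at 37 °C. Compound is added and fluorescence recorded on FLIPR. Inhibition of the glutamate-stimulated calcium signal is given as %, with IC50 from a 4-parameter logistic fit.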

rat mGluR5 receptor = biological target: T2, rat mGluR5 receptor (Rattus norvegicus, UniProt P31424); test: [3H]-MPEP binding HEK-293 cell membranes expressing a rat mGluR5 receptor; details: displacement of 4 nM [3H]-MPEP, HEK-293 cell membranes expressing rat mGluR5, 60 minute at room temperature; read-out: mGluR5 Ligand Binding DR Ki
T2 construct: expressed in transfected cells; host or cells: HEK-293
Summary of the method: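 Membranes from HEK-293 cells expressing rat mGluR5 incubated 60 min at room temperature in 50 mM Tris pH 7.5 with 4 nM [3H]-MPEP; 10 μM MPEP defines non-specific binding; filtration read-out. Single-point % inhibition at 10 μM, then Ki from IC50 via Cheng-Prusoff for actives.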

T2 sequence (P31424 21-1203): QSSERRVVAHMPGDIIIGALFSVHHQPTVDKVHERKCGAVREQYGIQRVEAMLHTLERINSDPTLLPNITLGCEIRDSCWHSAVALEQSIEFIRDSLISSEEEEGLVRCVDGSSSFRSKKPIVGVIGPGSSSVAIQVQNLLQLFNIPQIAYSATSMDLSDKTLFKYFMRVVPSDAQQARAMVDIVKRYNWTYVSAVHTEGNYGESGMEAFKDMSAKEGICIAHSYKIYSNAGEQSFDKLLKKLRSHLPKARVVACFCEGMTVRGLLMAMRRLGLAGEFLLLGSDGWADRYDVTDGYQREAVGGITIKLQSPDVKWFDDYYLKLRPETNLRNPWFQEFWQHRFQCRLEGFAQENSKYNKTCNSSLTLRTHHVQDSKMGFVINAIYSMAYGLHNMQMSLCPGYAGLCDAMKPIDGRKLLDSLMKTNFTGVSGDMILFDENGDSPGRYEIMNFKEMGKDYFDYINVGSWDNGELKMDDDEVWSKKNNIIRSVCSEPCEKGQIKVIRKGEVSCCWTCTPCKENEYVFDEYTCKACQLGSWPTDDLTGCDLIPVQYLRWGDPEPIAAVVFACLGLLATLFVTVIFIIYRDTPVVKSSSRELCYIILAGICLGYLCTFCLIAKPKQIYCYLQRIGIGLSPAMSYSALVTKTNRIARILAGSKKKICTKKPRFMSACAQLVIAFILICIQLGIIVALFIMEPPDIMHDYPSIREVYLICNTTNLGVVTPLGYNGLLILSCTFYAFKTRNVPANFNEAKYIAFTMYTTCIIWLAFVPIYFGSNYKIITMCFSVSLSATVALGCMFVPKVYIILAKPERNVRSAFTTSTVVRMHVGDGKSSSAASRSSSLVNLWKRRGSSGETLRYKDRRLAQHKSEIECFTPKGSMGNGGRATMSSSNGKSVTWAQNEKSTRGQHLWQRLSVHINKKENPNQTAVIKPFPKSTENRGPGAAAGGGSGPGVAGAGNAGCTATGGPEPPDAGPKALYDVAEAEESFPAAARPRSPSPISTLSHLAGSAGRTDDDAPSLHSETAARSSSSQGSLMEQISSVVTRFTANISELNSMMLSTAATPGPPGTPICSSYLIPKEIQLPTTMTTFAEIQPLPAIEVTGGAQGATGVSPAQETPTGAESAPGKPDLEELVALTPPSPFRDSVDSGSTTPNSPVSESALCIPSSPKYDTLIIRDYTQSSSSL
T1 sequence (P31424 21-1203): as above

Compound | IC50 [1] | Ki (rat mGluR5 receptor)
Cc1ccc(C(=O)N2CCc3c(Cl)cccc3C2)cc1C#Cc1ccccn1 [Example 84, 5-chloro-2-[4-methyl-3-(pyridin-2-ylethynyl)benzoyl]-1,2,3,4-tetrahydroisoquinoline] | 48 nM | 0.3 nM
Cc1ccc(C(=O)N2CCc3ncccc3C2)cc1C#Cc1ccccn1 [Example 85, 6-{[4-Methyl-3-(pyridin-2-ylethynyl)phenyl]carbonyl}-5,6,7,8-tetrahydro-1,6-naphthyridine] | 6 nM | 4 nM
Cc1ccc(C(=O)N2CCc3cccnc3C2)cc1C#Cc1ccccn1 [Example 86, 7-{[4-Methyl-3-(pyridin-2-ylethynyl)phenyl]carbonyl}-5,6,7,8-tetrahydro-1,7-naphthyridine] | 8 nM | 11 nM
Cc1ccc(C(=O)N2CCc3nc[nH]c3C2)cc1C#Cc1ccccn1 [Example 87, 5-{[4-methyl-3-(pyridin-2-ylethynyl)phenyl]carbonyl}-4,5,6,7-tetrahydro-3H-imidazo[4,5-c]pyridine] | 2 nM | 14 nM
Cc1ccc(C(=O)N2CCc3[nH]ncc3C2)cc1C#Cc1ccccn1 [Example 88, 5-{[4-methyl-3-(pyridin-2-ylethynyl)phenyl]carbonyl}-4,5,6,7-tetrahydro-1H-pyrazolo[4,3-c]pyridine] | 4 nM | 6 nM
Cc1nc2c(s1)CN(C(=O)c1ccc(C)c(C#Cc3ccccn3)c1)CC2 [Example 89, 2-methyl-5-{[4-methyl-3-(pyridin-2-ylethynyl)phenyl]carbonyl}-4,5,6,7-tetrahydro[1,3]thiazolo[5,4-c]pyridine] | 4 nM | 4 nM
Cc1nc2c(o1)CCN(C(=O)c1ccc(C)c(C#Cc3ccccn3)c1)C2 [Example 90, 2-methyl-5-{[4-methyl-3-(pyridin-2-ylethynyl)phenyl]carbonyl}-4,5,6,7-tetrahydro[1,3]oxazolo[4,5-c]pyridine] | 9 nM | 16 nM
Cc1ccc(C(=O)N2Cc3cccnc3C2)cc1C#Cc1ccccn1 [Example 91, 6-{[4-methyl-3-(pyridin-2-ylethynyl)phenyl]carbonyl}-6,7-dihydro-5H-pyrrolo[3,4-b]pyridine] | 4 nM | 6 nM

Second part, the compound after the results:

IC50 [1] | Ki (rat mGluR5 receptor) | Compound
7 nM | 3 nM | O=C(c1ccc(C(F)(F)F)c(C#Cc2ccccn2)c1)N1Cc2cccnc2C1 [Example 92, 6-{[3-(Pyridin-2-ylethynyl)-4-(trifluoromethyl)phenyl]carbonyl}-6,7-dihydro-5H-pyrrolo[3,4-b]pyridine]
42 nM | 2 nM | O=C(c1ccc(C(F)(F)F)c(C#Cc2ccccn2)c1)N1CCc2ccccc2C1 [Example 93, 2-{[3-(Pyridin-2-ylethynyl)-4-(trifluoromethyl)phenyl]carbonyl}-1,2,3,4-tetrahydroisoquinoline]
152 nM | 2 nM | O=C(c1ccc(C(F)(F)F)c(C#Cc2ccccn2)c1)N1CCc2ccc(Cl)cc2C1 [Example 94, 7-Chloro-2-{[3-(pyridin-2-ylethynyl)-4-(trifluoromethyl)phenyl]carbonyl}-1,2,3,4-tetrahydroisoquinoline]
163 nM | 4 nM | O=C(c1ccc(C(F)(F)F)c(C#Cc2ccccn2)c1)N1CCc2c(Cl)cccc2C1 [Example 95, 5-Chloro-2-{[3-(pyridin-2-ylethynyl)-4-(trifluoromethyl)phenyl]carbonyl}-1,2,3,4-tetrahydroisoquinoline]
69 nM | 5 nM | O=C(c1ccc(C(F)(F)F)c(C#Cc2ccccn2)c1)N1Cc2ccccc2C1 [Example 96, 2-{[3-(Pyridin-2-ylethynyl)-4-(trifluoromethyl)phenyl]carbonyl}-2,3-dihydro-1H-isoindole]
13 nM | 1 nM | O=C(c1ccc(C(F)(F)F)c(C#Cc2ccccn2)c1)N1CCc2ncc(Br)cc2C1 [Example 97, 3-Bromo-6-{[3-(pyridin-2-ylethynyl)-4-(trifluoromethyl)phenyl]carbonyl}-5,6,7,8-tetrahydro-1,6-naphthyridine]
7 nM | 4 nM | O=C(c1ccc(C(F)(F)F)c(C#Cc2ccccn2)c1)N1CCc2ncccc2C1 [Example 98, 6-{[3-(Pyridin-2-ylethynyl)-4-(trifluoromethyl)phenyl]carbonyl}-5,6,7,8-tetrahydro-1,6-naphthyridine]
5 nM | 4 nM | O=C(c1ccc(C(F)(F)F)c(C#Cc2ccccn2)c1)N1CCc2[nH]ncc2C1 [Example 100, 5-{[3-(Pyridin-2-ylethynyl)-4-(trifluoromethyl)phenyl]carbonyl}-4,5,6,7-tetrahydro-1H-pyrazolo[4,3-c]pyridine]
18 nM | 36 nM | O=C(c1ccc(C(F)(F)F)c(C#Cc2ccccn2)c1)N1CCc2[nH]cnc2C1 [Example 101, 5-{[3-(Pyridin-2-ylethynyl)-4-(trifluoromethyl)phenyl]carbonyl}-4,5,6,7-tetrahydro-1H-imidazo[4,5-c]pyridine]
